Test system: male C57BL/6J mice
Test: pMCAO stroke model, infarct volume by T2-weighted MRI
Type: in vivo
Details: 85 mg/kg QN11 intraperitoneally 15 min after arterial ligature
Protocol: To study of the effects of QN11 on stroke recovery, administration of the vehicle and QN11 molecule was performed intraperitoneally, to 8-week-old male C57BL/6J mice (Harlan) weighing 25-30 g. All procedures with animals were carried out under a protocol approved by the Ethical Committee of the Spanish National Research Council (CSIC), and recommendations of the European Council. A special effort was made to keep to a minimum necessary the number of animals to achieve adequate significance. For surgery, anaesthesia induction was carried out with 3% isoflurane (in 70% N2O, 30% O2), followed by 2% isoflurane for maintenance during stroke procedure. Rectal temperature was maintained at 36.5 °C with the use of a heating pad. The common branch of the middle cerebral artery was, after craniotomy, exposed and occluded permanently by suture ligation. To ensure a complete artery occlusion during surgery, cortical blood flow was monitored by non-invasive laser Doppler flowmetry, as a quality control, with the aid of a Perimed equipment (PeriFlux System 5000 Stroke Model Monitor, Perimed, Järfälla, Sweden). […] Animals subjected to surgery for longer than 15 min were excluded of the study. Physiological parameters were maintained. […]
MRI is the most commonly used diagnostic tool for stroke. […] All MRI data was analysed using ImageJ software. […]

With `[O-]/[N+](=C\c1ccc2cccc(O)c2n1)Cc1ccccc1` [QN11, (Z)-N-Benzyl-1-(8-hydroxyquinolin-2-yl)methanimine oxide] the “reduction in the percentage of brain infarct volume” value (MRI 48 h after pMCAO, compared with vehicle-treated animals (group b)) was 74,47% and the “infarct volume with regard to the whole brain volume” value (T2WI MRI 48 h after pMCAO, vehicle group b 2.453 %) was 0.6262%.

Source: patent EP4353711A1, “QUINOLIN-2-YL NITRONES FOR THE TREATMENT AND PREVENTION OF STROKE” (Consejo Superior De Investigaciones Científicas, priority 2022, dated 2024)
